# Key:
# p38α = p38α (Homo sapiens, UniProt Q16539); assay: p38 in-vitro HTRF enzyme assay; type: biochemical; conditions: IC50 value ranges
# Description: p38 In-Vitro HTRF Enzyme Assay
# The compounds of the invention can be tested for their respective affinities for the p38 protein using a conventional p38 in-vitro enzyme activity assay. For example, a P38-alpha HTRF assay may be used to measure the protein's in-vitro phosphorylation activity, and the data analyzed using time resolved fluorimetry techniques (FRET). A p38 HTRF assay is as follows. The kinase reaction buffer for p38α, p38β, p38δ and p38γ HTRF assays consists of 50 mM Tris-pH 7.5, 5 mM MgCl2, 0.1 mg/mL BSA, 100 μM Na3VO4 and 0.5 mM DTT. The HTRF detection buffer contains 100 mM HEPES-pH 7.5, 100 mM NaCl, 0.1% BSA, 0.05% Tween-20, and 10 mM EDTA. Each compound was dissolved in 100% DMSO and serially diluted (3 fold, 10 point) in a polypropylene 96-well microtiter plate (drug plate). The final starting concentration of the compound in the p38α and p38β enzymatic assays was about 1 μM. The final starting concentration of each compound in the p38δ and p38γ enzymatic assays was about 10 μM. The p38α, p38β, p38δ and p38γ kinase reactions were carried out in a polypropylene 96-well black round bottom assay plate in total volume of 30 μL kinase reaction buffer. Appropriate concentration of purified and activated enzyme (recombinant human) was mixed with indicated concentration of ATP and 100 nM GST-ATF2-Avitag, in the presence or absence (HI control) of each compound. In the absence of enzyme, the background was measured as LO control. HI controls and LO controls contained only DMSO. The reaction was allowed to incubate for 1 hour at RT. […] After 60 minutes incubation at room temperature, the assay plate was read in a Discovery Plate Reader. The wells were excited with coherent 320 nm light and the ratio of delayed ([…] post excitation) emissions at […] (native europium fluorescence) and 665 nm (europium fluorescence transferred to allophycocyanin—an index of substrate phosphorylation) was determined (Park et al, 1999). The resulting data was analyzed by taking the proportion of substrate phosphorylated in the kinase reaction in the presence of each individual compound and comparing it with that phosphorylated in the presence of DMSO vehicle alone (HI control). The data was calculated using the formula: % control (POC)=(compound−average LO)/(average HI−average LO)*100. Data (consisting of POC and inhibitor concentration in μM) was fitted to a 4-parameter equation (y=A+((B−A)/(1+((x/C)^D))), where A is the minimum y (POC) value, B is the maximum y (POC), C is the x (compound concentration) at the point of inflection and D is the slope factor, using a Levenburg-Marquardt non-linear regression algorithm. The inhibition constant (Ki) of the inhibitor was estimated from the IC50 (compound concentration at the point of inflection C) using the Cheng-Prussof equation: Ki=IC50/(1+S/Km), where S is the ATP substrate concentration, and Km is the Michaelis constant for ATP as determined experimentally. All results were expressed as the mean±the standard error of the mean. Data acquisition and non-linear regression algorithms were performed using Activity Base v5.2 and XLfit software v4.1 respectively. Additional assay information may be obtained in Park Y W, Cummings R T, Wu L, et al. Homogeneous Proximity Tyrosine Kinase Assays Scintillation Proximity Assay versus Homogeneous Time-Resolved Fluorescence. Analytical Biochemistry. 1999; 269: 94-104.
# THP1 cells = assay: Lipopolysaccharide-activated THP1 cell TNF production assay; type: cell-based, human; conditions: Homo sapiens, THP-1; LPS-induced TNF-α production in THP1 cells
# Description: Lipopolysaccharide-Activated THP1 Cell TNF Production Assay
# THP1 cells are resuspended in fresh THP1 media (RPMI 1640, 10% heat-inactivated FBS, 1×PGS, 1×NEAA, plus 30 μM βME) at a concentration of 1E6/mL. One hundred microliters of cells per well are plated in a polystyrene 96-well tissue culture. One microgram per mL of bacterial LPS is prepared in THP1 media and is transferred to the wells. Test compounds are dissolved in 100% DMSO and are serially diluted 3-fold in a polypropylene 96-well microtiter plate (drug plate). HI control and LO control wells contain only DMSO. One microliter of test compound from the drug plate followed by 10 μL of LPS are transferred to the cell plate. The treated cells are induced to synthesize and secrete TNF-α at 37° C. for 3 h. Forty microliters of conditioned media are transferred to a 96-well polypropylene plate containing 110 μL of ECL buffer (50 mM Tris-HCl pH 8.0, 100 mM NaCl, 0.05% Tween 20, 0.05% NaN3 and 1% FBS) supplemented with 0.44 nM MAB610 monoclonal Ab (R&D Systems), 0.34 nM ruthenylated AF210NA polyclonal Ab (R&D Systems) and 44 μg/mL sheep anti-mouse M280 Dynabeads (Dynal). After a 2 h incubation at room temperature with shaking, the reaction is read on the ECL M8 Instrument (IGEN Inc.). A low voltage is applied to the ruthenylated TNF-α immune complexes, which in the presence of TPA (the active component in Origlo), results in a cyclical redox reaction generating light at […]. The amount of secreted TNF-α in the presence of compound compared with that in the presence of DMSO vehicle alone (HI control) is calculated using the formula: % control (POC)=(cpd−average LO)/(average HI−average LO)*100. Data (consisting of POC and inhibitor concentration in μM) is fitted to a 4-parameter equation (y=A+((B−A)/(1+((x/C)^D))), where A is the minimum y (POC) value, B is the maximum y (POC), C is the x (cpd concentration) at the point of inflection and D is the slope factor) using a Levenburg-Marquardt non-linear regression algorithm.
# monocytes = assay: Lipopolysaccharide-activated monocyte TNF production assay (LPS induced TNF release); type: cell-based, human; conditions: Homo sapiens, Monocyte; LPS induced TNF release from monocytes; read-out: LPS induced TNFa
# Description: Lipopolysaccharide-Activated Monocyte TNF Production Assay
# Test compounds were evaluated in vitro for the ability to inhibit the production of TNF by monocytes activated with bacterial lipopolysaccharide (LPS). Fresh residual source leukocytes (a byproduct of plateletpheresis) were obtained from a local blood bank, and peripheral blood mononuclear cells (PBMCs) were isolated by density gradient centrifugation on Ficol-Paque Plus (Pharmacia). PBMCs were suspended at 2×10^6/mL in DMEM supplemented to contain 2% FCS, 10 mM, 0.3 mg/mL […], 100 U/mL penicillin G and […] streptomycin sulfate (complete media). Cells were plated into Falcon flat bottom, 96 well culture plates (200 μL/well) and cultured overnight at 37° C. and 6% CO2. Non-adherent cells were removed by washing with 200 μl/well of fresh medium. Wells containing adherent cells (˜70% monocytes) were replenished with 100 μL of fresh medium.
# Preparation of Test Compound Stock Solutions
# Test compounds were dissolved in […]. Compound stock solutions were prepared to an initial concentration of […]. Stocks were diluted initially to […] in complete media. Nine two-fold serial dilutions of each compound were then prepared in complete medium.
# Treatment of Cells with Test Compounds and Activation of TNF Production with Lipopolysaccharide
# One hundred microliters of each test compound dilution were added to microtiter wells containing adherent monocytes and 100 μL complete medium. Monocytes were cultured with test compounds for 60 min at which time 25 μL of complete medium containing 30 ng/mL lipopolysaccharide from E. coli K532 were added to each well. Cells were cultured an additional 4 hrs. Culture supernatants were then removed and TNF presence in the supernatants was quantified using an ELISA.
# Flat bottom, 96 well Corning High Binding ELISA plates were coated overnight (4° C.) with 150 μL/well of 3 μg/mL murine anti-human TNF-α MAb (R&D Systems #MAB210). Wells were then blocked for 1 h at room temperature with 200 μL/well of CaCl2-free ELISA buffer supplemented to contain 20 mg/mL BSA (standard ELISA buffer: […], 150 mM NaCl, 2 mM CaCl2, 0.15 mM thimerosal, pH 7.4). Plates were washed and replenished with 100 μL of test supernatants (diluted 1:3) or standards. Standards consisted of eleven 1.5-fold serial dilutions from a stock of 1 ng/mL recombinant human TNF (R&D Systems). Plates were incubated at room temperature for 1 h on orbital shaker (300 rpm), washed and replenished with 100 μL/well of 0.5 μg/mL goat anti-human TNF-α (R&D systems #AB-210-NA) biotinylated at a 4:1 ratio. Plates were incubated for 40 min, washed and replenished with 100 μL/well of alkaline phosphatase-conjugated streptavidin (Jackson ImmunoResearch #016-050-084) at 0.02 μg/mL. Plates were incubated 30 min, washed and replenished with 200 μL/well of 1 mg/mL of p-nitrophenyl phosphate.
# Standard curve data were fit to a second order polynomial and unknown TNF-α concentrations determined from their OD by solving this equation for concentration. TNF concentrations were then plotted vs. test compound concentration using a second order polynomial. This equation was then used to calculate the concentration of test compounds causing a 50% reduction in TNF production.
# p38α, sequence (Q16539 whole entry): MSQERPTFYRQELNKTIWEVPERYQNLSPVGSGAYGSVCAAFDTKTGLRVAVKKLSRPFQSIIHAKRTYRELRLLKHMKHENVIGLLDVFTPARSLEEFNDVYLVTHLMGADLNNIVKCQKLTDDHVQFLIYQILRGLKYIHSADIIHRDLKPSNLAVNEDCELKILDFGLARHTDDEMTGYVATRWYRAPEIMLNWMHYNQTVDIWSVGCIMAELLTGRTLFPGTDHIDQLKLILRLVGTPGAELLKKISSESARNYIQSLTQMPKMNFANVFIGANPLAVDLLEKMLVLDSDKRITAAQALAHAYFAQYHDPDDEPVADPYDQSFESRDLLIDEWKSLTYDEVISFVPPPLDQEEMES
Structure (SMILES),IC50 (p38α) [nM],IC50 (THP1 cells) [nM],IC50 (monocytes) [nM]
"Cc1ccc(C(=O)NC2(C)CC2)cc1-c1ccn2c(-c3ccccc3Cl)nnc2c1 [Example 11, 3-(3-(2-chlorophenyl)[1,2,4]triazolo[4,3-a]pyridin-7-yl)-4-methyl-N-(1-methylcyclopropyl)benzamide]",< 25,25 to 100,25 to 100
"Cc1ccc(C(=O)NC2CC2)cc1-c1ccn2c(-c3ccc(S(C)(=O)=O)cc3)nnc2c1 [Example 12, N-cyclopropyl-4-methyl-3-(3-(4-(methylsulfonyl)phenyl)[1,2,4]triazolo[4,3-a]pyridin-7-yl)benzamide]",25 to 100,1000 to 5000,250 to 1000
"Cc1ccc(C(=O)Nc2ccnn2C)cc1-c1ccn2c(-c3ccc(S(C)(=O)=O)cc3)nnc2c1 [Example 14, 4-methyl-N-(1-methyl-1H-pyrazol-5-yl)-3-(3-(4-(methylsulfonyl)phenyl)[1,2,4]triazolo[4,3-a]pyridin-7-yl)benzamide]",25 to 100,1000 to 5000,1000 to 5000
"Cc1ccc(C(=O)NC2(C)CC2)cc1-c1ccn2c(-c3ccc(F)cc3C)nnc2c1 [Example 16, 3-(3-(4-fluoro-2-methylphenyl)[1,2,4]triazolo[4,3-a]pyridin-7-yl)-4-methyl-N-(1-methylcyclopropyl)benzamide]",25 to 100,100 to 250,100 to 250
"Cc1ccc(C(N)=O)cc1-c1ccn2c(N)nnc2c1 [Example 24, 3-(3-amino[1,2,4]triazolo[4,3-a]pyridin-7-yl)-4-methylbenzamide]",1000 to 5000,1000 to 5000,1000 to 5000
"Cc1ccc(C(=O)NC2CC2)cc1-c1ccn2c(CC(C)(C)C)nnc2c1 [Example 25, N-cyclopropyl-3-(3-(2,2-dimethylpropyl)[1,2,4]triazolo[4,3-a]pyridin-7-yl)-4-methylbenzamide]",< 25,25 to 100,25 to 100

# Further lines, results first:
IC50 (p38α) [nM],IC50 (THP1 cells) [nM],IC50 (monocytes) [nM],Structure (SMILES)
25 to 100,250 to 1000,250 to 1000,"Cc1ccc(C(=O)NC2(C)CC2)cc1-c1ccn2c(-c3ccc(S(C)(=O)=O)cc3)nnc2c1 [Example 13, 4-methyl-N-(1-methylcyclopropyl)-3-(3-(4-(methylsulfonyl)phenyl)[1,2,4]triazolo[4,3-a]pyridin-7-yl)benzamide]"
< 25,< 25,25 to 100,"Cc1ccc(C(=O)NC2CC2)cc1-c1ccn2c(-c3ccc(F)cc3C)nnc2c1 [Example 15, N-cyclopropyl-3-(3-(4-fluoro-2-methylphenyl)[1,2,4]triazolo[4,3-a]pyridin-7-yl)-4-methylbenzamide]"
< 25,< 25,< 25,"Cc1ccc(C(=O)Nc2ccnn2C)cc1-c1ccn2c(-c3ccc(F)cc3C)nnc2c1 [Example 17, 3-(3-(4-fluoro-2-methylphenyl)[1,2,4]triazolo[4,3-a]pyridin-7-yl)-4-methyl-N-(1-methyl-1H-pyrazol-5-yl)benzamide]"
25 to 100,250 to 1000,100 to 250,"Cc1ccc(C(=O)NC2CC2)cc1-c1ccn2c(-c3cccc(S(C)(=O)=O)c3)nnc2c1 [Example 18, N-cyclopropyl-4-methyl-3-(3-(3-(methylsulfonyl)phenyl)[1,2,4]triazolo[4,3-a]pyridin-7-yl)benzamide]"
< 25,25 to 100,25 to 100,"Cc1ccc(C(=O)NC2CC2)cc1-c1ccn2c(-c3ccc(F)cc3C)ncc2c1 [Example 22, N-cyclopropyl-3-(3-(4-fluoro-2-methylphenyl)imidazo[1,5-a]pyridin-7-yl)-4-methylbenzamide]"
< 25,< 25,25 to 100,"Cc1ccc(C(=O)Nc2ccnn2C)cc1-c1ccn2c(-c3ccc(F)cc3C)ncc2c1 [Example 23, 3-(3-(4-fluoro-2-methylphenyl)imidazo[1,5-a]pyridin-7-yl)-4-methyl-N-(1-methyl-1H-pyrazol-5-yl)benzamide]"
